Data as given in patent US20260374754A1, “N-((ISOQUINOLIN-6-YL)METHYL)-1H-PYRAZOLE-4-CARBOXAMIDE DERIVATIVES AS PLASMA KALLIKREIN INHIBITORS FOR THE TREATMENT OF HEREDITARY ANGIODEMA” (Takeda Pharmaceutical Company Limited, priority 2022, published 2026).

Target: human activated kallikrein enzyme (Homo sapiens, UniProt P03952)
Assay: Inhibition of human activated plasma kallikrein, fluorogenic PFR-AMC substrate, 500 pM enzyme format
Assay type: biochemical
Conditions: 500 pM activated kallikrein; 300 μM PFR-AMC; 30 min preincubation; 10 min room temperature; pH 7.5; read-out: Primary Dose Response Assay: Average EC50
Summary of the method: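 500 pM activated kallikrein preincubated 30 min at room temperature with inhibitors in pH 7.5 Tris/EDTA/NaCl buffer with PEG-400 and Triton X-100. Reaction started with 300 μM PFR-AMC, run 10 min at room temperature; AMC fluorescence read at ex 380/em 460 nm.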

human activated kallikrein enzyme, sequence (P03952 391-638 limits assumed): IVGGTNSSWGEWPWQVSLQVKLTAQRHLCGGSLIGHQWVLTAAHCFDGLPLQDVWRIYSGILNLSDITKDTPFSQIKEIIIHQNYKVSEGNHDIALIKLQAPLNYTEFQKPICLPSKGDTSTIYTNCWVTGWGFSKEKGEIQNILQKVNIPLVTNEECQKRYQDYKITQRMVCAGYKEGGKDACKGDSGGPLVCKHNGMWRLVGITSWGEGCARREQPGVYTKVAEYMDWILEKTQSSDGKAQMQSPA
human activated kallikrein enzyme, sequence (P03952 20-390 partner limits assumed): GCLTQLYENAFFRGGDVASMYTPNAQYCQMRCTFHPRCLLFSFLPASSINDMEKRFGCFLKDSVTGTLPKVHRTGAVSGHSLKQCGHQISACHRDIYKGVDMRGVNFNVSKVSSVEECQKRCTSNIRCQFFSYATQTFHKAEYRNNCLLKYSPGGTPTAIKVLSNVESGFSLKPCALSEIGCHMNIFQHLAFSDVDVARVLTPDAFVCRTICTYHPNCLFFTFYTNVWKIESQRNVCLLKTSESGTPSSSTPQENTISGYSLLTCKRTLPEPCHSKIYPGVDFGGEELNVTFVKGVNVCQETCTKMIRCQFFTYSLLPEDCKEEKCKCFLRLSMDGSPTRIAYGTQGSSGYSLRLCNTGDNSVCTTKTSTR

Structure (SMILES)	EC50 [nM]
CC(=O)Nc1nccc2c(C)c(CNc3cc(OCc4ccc(Cn5cccn5)cc4)cnn3)c(C)cc12 [Example I-470, N-(6-(((5-((4-((1H-pyrazol-1-yl)methyl)benzyl)oxy)pyridazin-3-yl)amino)methyl)-5,7-dimethylisoquinolin-1-yl)acetamide]	10 to 100
Cc1cc2c(N)nccc2c(C)c1CNC(=O)c1cnn(Cc2cn3cc(C4CC4C)ccc3n2)c1 (centres unmarked) [Example 178, N-((1-amino-5,7-dimethylisoquinolin-6-yl)methyl)-1-((6-(2-methylcyclopropyl)imidazo[1,2-a]pyridin-2-yl)methyl)-1H-pyrazole-4-carboxamide]	< 1
Cc1cc2c(Nc3cc(OCc4ccc5ncc(C6CC6)cc5c4)ccn3)nccc2c(C)c1CN [Example 238, 6-(aminomethyl)-N-(4-((3-cyclopropylquinolin-6-yl)methoxy)pyridin-2-yl)-5,7-dimethylisoquinolin-1-amine]	100 to 1000
Cc1cc2c(N)nccc2c(C)c1CNc1cc2c(cn1)cnn2Cc1ccc(Cn2cccn2)cc1 [Example I-458, 6-(((1-(4-((1H-pyrazol-1-yl)methyl)benzyl)-1H-pyrazolo[4,3-c]pyridin-6-yl)amino)methyl)-5,7-dimethylisoquinolin-1-amine]	1 to 10
Cc1cc2c(N)nccc2c(C)c1CNC(=O)c1cnn(Cc2ccc(Cc3nnco3)cc2)c1 [Example 44, 1-(4-((1,3,4-oxadiazol-2-yl)methyl)benzyl)-N-((1-amino-5,7-dimethylisoquinolin-6-yl)methyl)-1H-pyrazole-4-carboxamide]	1 to 10
Cc1ccccc1Cn1cc(C(=O)NCc2c(C)cc3c(N)nccc3c2C)cn1 [Example 40, N-((1-amino-5,7-dimethylisoquinolin-6-yl)methyl)-1-(2-methylbenzyl)-1H-pyrazole-4-carboxamide]	100 to 1000
COc1ccc(Cn2cc(C(=O)NCc3c(C)cc4c(N)nccc4c3C)cn2)cc1 [Example 91, N-((1-amino-5,7-dimethylisoquinolin-6-yl)methyl)-1-(4-methoxybenzyl)-1H-pyrazole-4-carboxamide]	10 to 100
Cc1cc2c(N)nccc2c(C)c1CNC(=O)c1cnn(Cc2cn3c(C)c(Cl)ccc3n2)c1 [Example 106, N-((1-amino-5,7-dimethylisoquinolin-6-yl)methyl)-1-((6-chloro-5-methylimidazo[1,2-a]pyridin-2-yl)methyl)-1H-pyrazole-4-carboxamide]	< 1
Cc1cc2c(N)nccc2c(C)c1CNC(=O)c1cnn(Cc2ccc(Cc3ccccn3)cc2)c1 [Example 165, N-((1-amino-5,7-dimethylisoquinolin-6-y1)methyl)-1-(4-(pyridin-2-ylmethyl)benzyl)-1H-pyrazole-4-carboxamide]	< 1
Cc1ccc(Cn2cc(C(=O)NCc3c(C)cc4c(N)nccc4c3C)cn2)cc1 [Example 35, N-((1-amino-5,7-dimethylisoquinolin-6-yl)methyl)-1-(4-methylbenzyl)-1H-pyrazole-4-carboxamide]	10 to 100
Cc1cc2c(N)nccc2c(C)c1CNc1cc(=O)n(Cc2cn3c(=O)n(C4CC4)ccc3n2)cn1 [Example 505, 2-((4-(((1-amino-5,7-dimethylisoquinolin-6-yl)methyl)amino)-6-oxopyrimidin-1(6H)-yl)methyl)-6-cyclopropylimidazo[1,2-c]pyrimidin-5(6H)-one]	> 1000
Cc1cc2c(N)nccc2c(C)c1CNC(=O)c1cnn(Cc2cn3cc(C(F)(F)F)ccc3n2)c1 [Example 201, N-((1-amino-5,7-dimethylisoquinolin-6-yl)methyl)-1-((6-(trifluoromethyl)imidazo[1,2-a]pyridin-2-yl)methyl)-1H-pyrazole-4-carboxamide]	< 1
Cc1cc2c(N)nccc2c(C)c1CNC(=O)c1nnc(Cc2cn3cc(C4CC4)ccc3n2)o1 [Example 190, N-((1-amino-5,7-dimethylisoquinolin-6-yl)methyl)-5-((6-cyclopropylimidazo[1,2-a]pyridin-2-yl)methyl)-1,3,4-oxadiazole-2-carboxamide]	< 1
COc1ccc2nc(CNc3cc(NCc4c(C)cc5c(N)nccc5c4C)ncn3)ccc2c1 [Example 307, N^4-((1-amino-5,7-dimethylisoquinolin-6-yl)methyl)-N^6-((6-methoxyquinolin-2-yl)methyl)pyrimidine-4,6-diamine]	10 to 100
Cc1ccc2nc(Cn3cc(C(=O)N(C)Cc4c(C)cc5c(N)nccc5c4C)cn3)cn2c1 [Example 128, N-((1-amino-5,7-dimethylisoquinolin-6-yl)methyl)-N-methyl-1-((6-methylimidazo[1,2-a]pyridin-2-yl)methyl)-1H-pyrazole-4-carboxamide]	10 to 100
Cc1cc2c(N)nccc2c(C)c1CNC(=O)c1cnn(Cc2cnc(-c3ccccc3)nc2)c1 [Example 195, N-((1-amino-5,7-dimethylisoquinolin-6-yl)methyl)-1-((2-phenylpyrimidin-5-yl)methyl)-1H-pyrazole-4-carboxamide]	1 to 10

Structure (SMILES)	EC50 [nM]
Cc1cc2c(N)nccc2c(C)c1CNC(=O)c1cnn(Cc2ccc(CC(N)=O)cc2)c1 [Example 231, 1-(4-(2-amino-2-oxoethyl)benzyl)-N-((1-amino-5,7-dimethylisoquinolin-6-yl)methyl)-1H-pyrazole-4-carboxamide]	10 to 100
Cc1ccc2nc(Cn3cc(C(=O)NCc4c(C)cc5c(N(C(=O)OC(C)C)C(=O)OC(C)C)nccc5c4C)cn3)cn2c1 [Example 3, diisopropyl (5,7-dimethyl-6-((1-((6-methylimidazo[1,2-a]pyridin-2-yl)methyl)-1H-pyrazole-4-carboxamido)methyl)isoquinolin-1-yl)iminodicarbonate]	100 to 1000
Cc1cc2c(N)nccc2c(C)c1CNC(=O)c1cnn(Cc2cn3ccc(C4CC4)cc3n2)c1 [Example 100, N-((1-amino-5,7-dimethylisoquinolin-6-yl)methyl)-1-((7-cyclopropylimidazo[1,2-a]pyridin-2-yl)methyl)-1H-pyrazole-4-carboxamide]	< 1
Cc1cc2c(N)nccc2c(C)c1CNC(=O)c1cnn(Cc2cc3cc(C4CC4)ccn3n2)c1 [Example 121, N-((1-amino-5,7-dimethylisoquinolin-6-yl)methyl)-1-((5-cyclopropylpyrazolo[1,5-a]pyridin-2-yl)methyl)-1H-pyrazole-4-carboxamide]	< 1
Cc1cc2c(N)nccc2c(C)c1CNc1cc(NCc2cn3ccccc3n2)ncn1 [Example 321, N^4-((1-amino-5,7-dimethylisoquinolin-6-yl)methyl)-N^6-(imidazo[1,2-a]pyridin-2-ylmethyl)pyrimidine-4,6-diamine]	1 to 10
Cc1cc2c(N)nccc2c(C)c1CNc1cc(OCc2cn3cc(C4CC4)ccc3n2)cnc1C(=O)O [Example 495, 3-(((1-amino-5,7-dimethylisoquinolin-6-yl)methyl)amino)-5-((6-cyclopropylimidazo[1,2-a]pyridin-2-yl)methoxy)picolinic acid]	> 1000
Cc1cc2c(N)nccc2c(C)c1CNC(=O)c1cnn(Cc2ccc(N(C)C(=O)N3CCCC3)cc2)c1 [Example 21, N-((1-amino-5,7-dimethylisoquinolin-6-yl)methyl)-1-(4-(N-methylpyrrolidine-1-carboxamido)benzyl)-1H-pyrazole-4-carboxamide]	1 to 10
Cc1cc2c(N)nccc2c(C)c1CNc1nccc2nnn(Cc3cn4cc(C5CC5)ccc4n3)c12 [Example 253, 6-(((3-((6-cyclopropylimidazo[1,2-a]pyridin-2-yl)methyl)-3H-[1,2,3]triazolo[4,5-c]pyridin-4-yl)amino)methyl)-5,7-dimethylisoquinolin-1-amine]	100 to 1000
Cc1cc2c(N)nccc2c(C)c1CNc1cc(NCc2nc3ccccc3s2)ncn1 [Example 319, N^4-((1-amino-5,7-dimethylisoquinolin-6-yl)methyl)-N6-(benzo[d]thiazol-2-ylmethyl)pyrimidine-4,6-diamine]	100 to 1000
Cc1cc2c(N)nccc2c(C)c1CNc1cc(CCc2ccc(Cn3cccn3)cc2)ncn1 [Example I-460, 6-((6-(4-((1H-pyrazol-1-yl)methyl)phenethyl)pyrimidin-4-ylamino)methyl)-5,7-dimethylisoquinolin-1-amine]	10 to 100
Cc1cc2c(N)nccc2c(C)c1CNC(=O)c1cnn(Cc2ccc3nc(C)c(C)nc3c2)c1 [Example I-464, N-((1-amino-5,7-dimethylisoquinolin-6-yl)methyl)-1-((2,3-dimethylquinoxalin-6-yl)methyl)-1H-pyrazole-4-carboxamide]	< 1
Cc1cc2c(N)nccc2c(C)c1CNc1cc(OCc2ccc(Cn3cccn3)nc2)ncn1 [Example 300, 6-(((6-((6-((1H-pyrazol-1-yl)methyl)pyridin-3-yl)methoxy)pyrimidin-4-yl)amino)methyl)-5,7-dimethylisoquinolin-1-amine]	100 to 1000
Cc1cc2c(N)nccc2c(C)c1CNC(=O)c1cnn(Cc2cn3c(C)cccc3n2)c1 [Example 105, N-((1-amino-5,7-dimethylisoquinolin-6-yl)methyl)-1-((5-methylimidazo[1,2-a]pyridin-2-yl)methyl)-1H-pyrazole-4-carboxamide]	< 1
Cc1cc2c(N)nccc2c(C)c1CNC(=O)c1cnn([C@H](C)c2ccccc2)c1 [Example 127, (R)-N-((1-amino-5,7-dimethylisoquinolin-6-yl)methyl)-1-(1-phenylethyl)-1H-pyrazole-4-carboxamide]	100 to 1000
Cc1cc2c(N)nccc2c(C)c1CNC(=O)c1cnn(Cc2ccc(CC(=O)N3CCCC3)cc2)c1 [Example 232, N-((1-amino-5,7-dimethylisoquinolin-6-yl)methyl)-1-(4-(2-oxo-2-(pyrrolidin-1-yl)ethyl)benzyl)-1H-pyrazole-4-carboxamide]	< 1
Cc1cc2c(Nc3cc4c(cn3)nnn4Cc3cn4cc(C5CC5)ccc4n3)nccc2c(C)c1CN [Example 502, 6-((l2-azanyl)methyl)-N-(1-((6-cyclopropylinmidazo[1,2-a]pyridin-2-yl)methyl)-1H-[1,2,3]triazolo[4,5-c]pyridin-6-yl)-5,7-dimethylisoquinolin-1-amine]	> 1000
